The values below come from patent US20230183188A1, “ENPP1 MODULATORS AND USES THEREOF” (Vir Biotechnology, Inc., priority 2020, published 2023).

In this experiment the target is T1, recombinant protein containing the human ENPP1 enzymatic domain (Homo sapiens, UniProt P22413).
T1 construct: recombinant protein containing the human ENPP1 enzymatic domain; purchased R&D Systems 6136-EN-010
T1 sequence (P22413 191-591 limits assumed): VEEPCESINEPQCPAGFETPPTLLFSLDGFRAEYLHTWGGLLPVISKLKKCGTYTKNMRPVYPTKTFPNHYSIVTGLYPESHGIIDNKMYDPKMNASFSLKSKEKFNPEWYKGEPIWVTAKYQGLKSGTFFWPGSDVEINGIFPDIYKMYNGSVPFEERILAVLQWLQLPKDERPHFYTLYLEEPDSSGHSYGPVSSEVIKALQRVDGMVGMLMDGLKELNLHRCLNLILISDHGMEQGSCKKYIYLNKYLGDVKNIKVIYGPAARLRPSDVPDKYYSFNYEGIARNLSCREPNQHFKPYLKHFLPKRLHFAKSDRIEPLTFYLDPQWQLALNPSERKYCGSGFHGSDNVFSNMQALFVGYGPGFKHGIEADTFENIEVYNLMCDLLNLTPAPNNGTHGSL
As to the kind of experiment: ENPP1 Enzymatic Inhibition Assay (2′3′-cGAMP substrate, AMP-Glo luminescence). Format: biochemical. Particulars: 1 nM ENPP1, 20 uM 2′3′-cGAMP substrate, 30 minutes at 37° C. As to the method: The inhibition of ENPP1's phosphodiesterase activity were tested in a purified enzymatic assay using 2′3′-cyclic GAMP as a substrate which allowed for the release of cleaved AMP to be monitored using a luminescent assay.
Putative inhibitors were diluted in assay buffer (50 mM Tris pH 8.0, 250 mM NaCl, 0.5 mM CaCl2, 1 uM ZnCl2, 1% DMSO) and pre-incubated for 15 minutes at 37° C. with recombinant protein containing the human ENPP1 enzymatic domain (R&D Systems cat. #6136-EN-010). The enzymatic reaction was initiated upon addition of the 2′3′-cGAMP substrate. The final reaction concentrations were 1 nM ENPP1 and 20 uM 2′3′-cGAMP substrate in a 25 uL volume. Inhibitor concentrations ranged from 10 uM to 0.2 nM. The reaction was incubated for 30 minutes at 37° C.
After reacting for 30 minutes, the amount of AMP generated from the cleavage of 2′3′-cGAMP was determined using the Promega AMP-Glo method according to the manufacturer's protocol. First, AMP-Glo reagent 1 was added and incubated with the reaction mix for 1 hour at room temperature. Second, AMP Detection solution was added and the mixture was incubated for an additional hour. The luminescence of the mixture was read on a Perkin Elmer Ensight plate reader.
The maximum and minimum levels of ENPP1 activity were established using no inhibitor and no enzyme controls, respectively. The activity observed using ENPP1 inhibitors was quantified as the percent of activity relative to these controls. IC50 values were calculated using GraphPad Prism by fitting a sigmoidal variable slope nonlinear regression model to the data.
For orientation: IC50 means the concentration that gives 50% inhibition. With `COc1ccc2c(Oc3ccc(S(N)(=O)=NCCOc4ccccc4)cc3)ccnc2c1` (centres unmarked) [Compound 34, 4-((7-methoxyquinolin-4-yl)oxy)-N′-(2-phenoxyethyl)benzenesulfonimidamide], the IC50 lay in the range of 10 to 100 nM.

Consider `COc1ccc2c(Oc3ccc(S(N)(=O)=NCc4ccc(-c5ccncc5)cc4)cc3)ccnc2c1` (centres unmarked) [Compound 35, 4-((7-methoxyquinolin-4-yl)oxy)-N′-(4-(pyridin-4-yl)benzyl)benzenesulfonimidamide], for which the IC50 is less than 10 nM.

On to `COc1ccc2c(Oc3ccc(S(N)(=O)=NCC4CCC4)cc3)ccnc2c1` (centres unmarked) [Compound 36, N′-(cyclobutylmethyl)-4-((7-methoxyquinolin-4-yl)oxy)benzenesulfonimidamide], for which the IC50 was less than 10 nM.

With `COc1ccc2c(Oc3ccc(S(N)(=O)=NCC(F)(F)F)cc3)ccnc2c1` (centres unmarked) [Compound 37, 4-((7-methoxyquinolin-4-yl)oxy)-N′-(2,2,2-trifluoroethyl)benzenesulfonimidamide], the IC50 was less than 10 nM.

For the molecule `COc1ccc2c(Oc3ccc(S(N)(=O)=Nc4ccc(-c5ccncc5)cc4)cc3)ccnc2c1` (centres unmarked) [Compound 38, 4-((7-methoxyquinolin-4-yl)oxy)-N′-(4-(pyridin-4-yl)phenyl)benzenesulfonimidamide], the IC50 lay in the range of 10 to 100 nM.

As for `COc1ccc2c(Oc3ccc(S(N)(=O)=NCCNC(=O)OC(C)(C)C)cc3)ccnc2c1` (centres unmarked) [Compound 39, tert-butyl (2-((amino(4-((7-methoxyquinolin-4-yl)oxy)phenyl)(oxo)-λ^6-sulfaneylidene)amino)ethyl) carbamate], the IC50 is 10 to 100 nM.

Regarding `COc1ccc2c(Oc3ccc(S(N)(=O)=NCCN)cc3)ccnc2c1` (centres unmarked) [Compound 40, N′-(2-aminoethyl)-4-((7-methoxyquinolin-4-yl)oxy)benzenesulfonimidamide], the IC50 lay within 10 to 100 nM.

`COc1ccc2c(Oc3ccc(S(N)(=O)=NCCNC(C)=O)cc3)ccnc2c1` (centres unmarked) [Compound 41, N-(2-((amino(4-((7-methoxyquinolin-4-yl)oxy)phenyl)(oxo)-I^6-sulfaneylidene)amino)ethyl)acetamide]: the IC50 was less than 10 nM.

For the molecule `COc1ccc2c(Nc3ccc(S(=N)(=O)N(C)C)cc3)ncnc2c1` (centres unmarked) [Compound 42, 4-((7-methoxyquinazolin-4-yl)amino)-N,N-dimethylbenzenesulfonimidamide], the IC50 lay within 10 to 100 nM.

Turning to `COc1ccc2c(Oc3ccc(S(N)(=O)=NC[C@@H]4CCCN4C(=O)OC(C)(C)C)cc3)ccnc2c1` (stereo partly drawn) [Compound 43, tert-butyl (2S)-2-(((amino(4-((7-methoxyquinolin-4-yl)oxy)phenyl)(oxo)-I^6-sulfaneylidene)amino)methyl) pyrrolidine-1-carboxylate], the IC50 was in the range of 10 to 100 nM.

For the molecule `COc1ccc2c(Oc3ccc(S(N)(=O)=NC[C@@H]4CCCN4)cc3)ccnc2c1` (stereo partly drawn) [Compound 44, 4-((7-methoxyquinolin-4-yl)oxy)-N′-(((S)-pyrrolidin-2-yl)methyl)benzenesulfonimidamide], the IC50 lay in the range of 10 to 100 nM.
